According to patent publication US20260325542A1, “CANCER TARGETING COMPLEX, AND COMPOSITION COMPRISING SAME FOR PREVENTING OR TREATING CANCER” (EWHA UNIVERSITY - INDUSTRY COLLABORATION FOUNDATION, priority 2023, published 2026):
“Also recorded” adds a separate entry of the source.

Assays:
[1] = biological target: T1, BRD4 (Mus musculus, UniProt Q9ESU6); assay: Western blot, BRD4 degradation in 4T1 cells; assay type: cell-based; conditions: 24 hours
T1 construct: Western blot after PROTAC (ARV-771 release, VHL recruiting)
Description: (§1) Accordingly, Western blot analysis was performed to confirm the anticancer ability by evaluating the presence or absence of degradation of BRD4 and other related proteins (e.g., c-Myc and Bcl-2) when cancer cells were treated with the complex for cancer targeting (ECMal-PROTAC) of example 1. The complex for cancer targeting (ECMal-PROTAC) of example 1 and ARV-771 were prepared as samples.
(§2) First, 1×10^5 4T1 cells were dispensed into each well of a 6-well culture plate and cultured for 24 hours at 37° C. and 5% carbon dioxide atmosphere. The cell culture medium was supplemented with various concentrations of ARV-771 (0 to 10 μM) or the complex for cancer targeting (ECMal-PROTAC) of example 1 (0 to 10 μM), and cultured at 37° C. for 24 hours. After the culture was completed, the cells were washed 3 times with PBS, and lysed with a lysis buffer containing 1% […]. Cell debris from the recovered lysate was removed by centrifugation at 12,000 rpm for 25 minutes. After recovering the supernatant, the protein amount was measured using a BCA kit. The supernatant was loaded onto a 10% sodium dodecyl sulfate-polyacrylamide gel. Electrophoresis (SDS-PAGE) was performed, followed by blotting onto a polyvinylidene difluoride (PVDF) membrane. After blotting, the PVDF membrane was treated with 5% BSA-containing tris buffered saline containing 0.1% Tween 20 (TBS-T) for 2 hours to suppress the non-specific binding of IgG (immunoglobulin G). It was immediately exposed to a rabbit anti-mouse primary antibody (1,000:1). After treating at 4° C. for 24 hours, the PVDF membrane was washed 3 times with TBS-T and further incubated with an HRP-conjugated mouse anti-rabbit IgG antibody at room temperature for 1 hour. The immunoreactive bands on the PVDF membrane were analyzed through an ECL (enhanced chemiluminescence) system.

[2] = biological target: thiol-blocked BSA (Bos taurus, UniProt P02769); assay: Selective binding: thiol-blocked BSA, RP-HPLC; design: species or system bovine; conditions: thiol-blocked BSA 200 μM, ECMal-PROTAC 140 μM, up to 60 minutes
Sequence of thiol-blocked BSA (P02769 25-607): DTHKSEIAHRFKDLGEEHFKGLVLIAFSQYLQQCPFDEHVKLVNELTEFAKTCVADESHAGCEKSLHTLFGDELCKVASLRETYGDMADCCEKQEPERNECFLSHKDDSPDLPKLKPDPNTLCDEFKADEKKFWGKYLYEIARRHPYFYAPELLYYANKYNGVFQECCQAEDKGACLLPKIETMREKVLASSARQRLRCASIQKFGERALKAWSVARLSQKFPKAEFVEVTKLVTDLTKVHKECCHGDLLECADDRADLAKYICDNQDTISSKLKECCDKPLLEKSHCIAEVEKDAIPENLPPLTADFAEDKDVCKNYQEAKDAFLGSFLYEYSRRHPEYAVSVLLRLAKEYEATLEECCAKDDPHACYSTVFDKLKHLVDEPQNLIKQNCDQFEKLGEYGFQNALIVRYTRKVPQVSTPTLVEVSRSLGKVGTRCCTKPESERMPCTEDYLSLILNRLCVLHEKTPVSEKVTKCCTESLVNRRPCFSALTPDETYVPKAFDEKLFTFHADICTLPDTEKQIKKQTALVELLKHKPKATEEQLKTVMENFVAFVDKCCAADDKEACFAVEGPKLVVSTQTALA
Description: To confirm whether the binding of ECMal-PROTAC of example 1 and albumin is specific, thiol-blocked BSA was used. Specifically, thiol-blocked BSA was prepared by mixing 4-maleimidobutyric acid and BSA with a cyc34 blocking agent. The thiol-blocked BSA was diluted with PBS to prepare a solution (200 μM). This was co-incubated by mixing it with the ECMal-PROTAC aqueous solution (140 μM) of example 1 at a 1:1 volume ratio. The culture was collected at incubation times of 0 minutes, 5 minutes, 30 minutes, and 60 minutes. It was quenched with mercaptoethanol, and HPLC spectra for each sample were acquired through concentration gradient of the eluent (ACN/H2O, 20/80 to 80/20 (v/v), 30 minutes).
From the HPLC results for the BSA and complex for cancer targeting (ECMal-PROTAC) mixture in Experimental Example 1 and the thiol-blocked BSA and complex for cancer targeting (ECMal-PROTAC) mixture in Experimental Example 2, the reduction in the HPLC peak area associated with the complex for cancer targeting (ECMal-PROTAC) was quantified.

[3] = test system: c-Myc; assay: Western blot, c-Myc level in 4T1 cells; assay type: cell-based, mouse; conditions: 0 to 10 μM, 24 hours
Description: as §1
as §2, with “After blotting, the PVDF membrane was treated with 5% BSA-containing tris buffered saline containing 0.1% Tween 20 (TBS-T) for 2 hours to suppress the non-specific binding of IgG (immunoglobulin G). It was immediately exposed to a rabbit anti-mouse primary antibody (1,000:1). After treating at 4° C. for 24 hours, the PVDF membrane was washed 3 times with TBS-T and further incubated with an HRP-conjugated mouse anti-rabbit IgG antibody at room temperature for 1 hour.” left out

- DC50 ([1]; Western blot, read-out: DC50 (half-maximal degradation concentration), BRD4): 1810 nM
- interaction with thiol-blocked BSA [2]: did not form an interaction
SMILES: Cc1ncsc1-c1ccc([C@H](C)NC(=O)[C@@H]2C[C@@H](OC(=O)CCCCn3nnc4c3CCC3C(CC4)C3COC(=O)NCCOCCOCCNC(=O)CCN3C(=O)C=CC3=O)CN2C(=O)[C@@H](NC(=O)COCCCOCCNC(=O)C[C@@H]2N=C(c3ccc(Cl)cc3)c3c(sc(C)c3C)-n3c(C)nnc32)C(C)(C)C)cc1 (stereo partly shown) [ECMal-PROTAC]
- degradation of overexpressed BRD4 protein ([1]; 0 to 10 μM): degrades the overexpressed BRD4 protein in a concentration-dependent manner; also recorded: induce BRD4 deficiency
- c-Myc level [3]: reduces the levels; also recorded: reduced expression
